Source: patent US9290473B2, “Inhibitors of phosphatidylinositol-3-kinase (PI3) and inducers of nitric oxide (NO)” (COUCIL OF SCIENTIFIC & INDUSTRIAL RESEARCH, priority 2009, dated 2016)
pIC50: −log10 of the molar value. Like-named read-outs stand apart in the source and are kept apart here.

How the values were obtained:
[1] = tested on: chronic myeloid leukemia cell line K562; assay: Cell viability, trypan blue exclusion, K562; format: cell-based; details: Homo sapiens
Text: (§1) Following cancer cell lines were used: chronic myeloid leukemia cell lines K562, KU812; acute myeloid leukemia cell lines HL60, U937; T-lymphoblastic leukemia cell line Molt-4; prostate cancer cell line PC-3; breast cancer cell line MCF-7; pancreatic cancer cell line MIA PaCa-2. These cancer cell lines were maintained in tissue culture in standard growth medium containing 10% heat-inactivated fetal bovine serum (FBS). Normal human peripheral blood mononuclear cells (PBMC) were separated from whole blood by Ficoll/Hypaque density gradient centrifugation. Peripheral blood samples were collected from normal donors with due approval from the Human Ethics Committee of Indian Institute of Chemical Biology, Kolkata, India, and all experiments with human blood were conducted under an approved institutional Human Ethics committee protocol. Informed consent was provided according to the Declaration of Helsinki. Cancer cell lines and PBMC (5×10^3) in triplicate were incubated in 0.2 mL of standard growth medium containing 10% FBS with varying concentrations of test compounds of the present invention. After 72 hours of incubation, cells were collected by centrifugation (at 1000 g for 5 minutes) and cell-viability was determined by the trypan blue exclusion assay. At least 200 cells were examined in each sample. Because of monolayer culture, treated and untreated PC-3, MCF-7 and MIA PaCa-2 cells were detached from the wells by treatment with Cell Dissociation Solution (Sigma Chemical, St. Louis, Mo.) before counting. Data are represented as IC50 (minimum concentration required to inhibit the viability by 50%) in Table 5.

[2] = tested on: chronic myeloid leukemia cell line KU812; assay: Cell viability, trypan blue exclusion, KU812; format: cell-based; details: Homo sapiens, 72 hours incubation
Text: as §1

[3] = tested on: acute myeloid leukemia cell line HL60; assay: Cell viability, trypan blue exclusion, HL-60; format: cell-based; details: Homo sapiens
Text: as §1

[4] = tested on: T-lymphoblastic leukemia cell line Molt-4; assay: Cell viability, trypan blue exclusion, Molt-4; format: cell-based, human
Text: as §1

[5] = tested on: prostate cancer cell line PC-3; assay: Cell viability, trypan blue exclusion, PC-3; format: cell-based, human; details: 72 hours incubation
Text: as §1

[6] = tested on: breast cancer cell line MCF-7; assay: Cell viability, trypan blue exclusion, MCF-7; format: cell-based, human
Text: as §1

[7] = tested on: pancreatic cancer cell line MIA PaCa-2; assay: Cell viability, trypan blue exclusion, MIA PaCa-2; format: cell-based, human; details: read-out: Activity (IC50) MIAPaCa-2
Text: as §1

[8] = tested on: Normal human peripheral blood mononuclear cells (PBMC); assay: Cell viability, trypan blue exclusion, normal PBMC; format: cell-based; details: 72 hours incubation
Text: as §1

[9] = tested on: acute myeloid leukemia cell line U937; assay: Cell viability, trypan blue exclusion, U937; format: cell-based; details: Homo sapiens, U-937, 72 hours incubation
Text: as §1

[10] = Sensitivity to spontaneous autooxidation (H2O2 level, TMB reagent); format: physicochemical; details: 30 µM, 30 min and 2 hr in medium alone, with and without Catalase; H2O2 in supernatant
Experimental: Spontaneous autooxidation of compounds having phenolic groups produce reactive oxygen species like H2O2. The enzyme Catalase breaks down H2O2 to water, We therefore incubated Compound 1 and 7 (30 µM each) for 30 min and 2 hr in medium alone in the presence and absence of Catalase. Level of H2O2 in the supernatant was then measured as reported using 3,5,3′,5′-tetramethylbenzidine (TMB) reagent (Plant Physiology, 2004, 136, 3114-3123). FIG. 1 represents the data of sensitivity of spontaneous autooxidation of Compound 1 and Compound 7.

U937 cells = assay: Morphology and apoptosis/necrosis in U937 cells (Giemsa; annexin V-FITC/PI flow cytometry); format: cell-based, human; details: Compound No.1 30 μM, Compound No.7 15 μM, 24 hours, annexin V-FITC/PI
Experimental: U937 cells were treated with standard growth medium alone or with standard growth medium containing hydroxychavicol (30 μM) for 24 hours. Treated and untreated cells were stained with Giemsa and viewed under microscope (magnification ×1000). For measurement of apoptosis/necrosis, cells were left untreated or treated with Compound No. 1 (30 μM) or Compound No.7 (15 μM) for 24 hours. After washing, cells were stained with fluorescein isothiocyanate (FITC)-conjugated annexin V and propidium iodide (PI) and analysed in a flow cytometer (BD LSR, Becton Dickinson).
FIG. 2B indicates flow cytometric determination of apoptosis and necrosis by Compound No.1 (hydroxychavicol) and Compound No.7. Apoptosis and necrosis of U937 cells were induced. Cells were left untreated (extreme left panel), or incubated with Compound No.1 (30 μM) (middle panel) or Compound No.7 (extreme right panel) (15 μM) for 24 hours and processed for flow cytometry after staining with annexin V-FITC and propidium iodide (PI). Viable cells are in the lower left quadrant (stained neither by annexin V nor by PI), early apoptotic cells (stained by annexin V only) are in the lower right quadrant, late-stage apoptotic cells (stained by both annexin V and PI) are in the upper right quadrant and the necrotic cells (stained by PI only) are in the upper left quadrant.

normal human PBMC = assay: Apoptosis/necrosis of normal human PBMC by flow cytometry; format: cell-based; details: 30 μM, 24 hours
Experimental: FIG. 2C indicates flow cytometric determination of apoptosis and necrosis of normal human PBMC by Compound 1 (30 μM) and Compound 7 (30 μM) after incubation for 24 hours.

[11] = tested on: Ehrlich ascites carcinoma (EAC); assay: Ehrlich ascites carcinoma (EAC) model in vivo; details: 30 mg/kg body weight intraperitoneally thrice a week for three weeks, Swiss albino mice
Text: The in vitro studies indicate that hydroxychavicol and other compounds of the present invention induce killing of a variety of cancer cell lines including breast cancer cell line MCF-7 (Table 5). The MCF-7 cell line is of epithelial origin. Studies were extended in vivo in mouse model for a tumor of epithelial origin. Ehrlich ascites carcinoma is a tumor of epithelial origin (Cancer Research, 1958, 18, 1167-1185). EAC was established in Swiss albino mice as described (Biochemical and Biophysical Research Communications, 2001, 288, 658-665). Swiss albino mice were injected with EAC (2×10^6 cells/mouse) intraperitoneally. 2 days post-injection of tumor cells, these mice (5 per group) were injected intraperitoneally with Compound No. 1 (hydroxychavicol) (30 mg/kg body weight) or Compound No. 7 (30 mg/kg body weight) thrice a week for three weeks. One week after the last injection, mice were sacrificed, and viable cells from peritoneal cavity were counted microscopically. Vehicle (dimethyl sulphoxide [DMSO], 0.1%) was used as control.

[12] = K562, 72 hours incubation, trypan blue exclusion, read-out: Activity (IC50) K562
[13] = read-out: IC50 against chronic myeloid leukemia cancer cell lines (K562), range over both cell lines K562, KU812 and KU812 and over the listed compounds, read-out: IC50 against chronic myeloid leukemia cancer cell lines (K562, KU812)
[14] = 72 hours incubation, trypan blue exclusion, read-out: Activity (IC50) HL-60
[15] = range over both cell lines HL60 and U937 and over the listed compounds, read-out: IC50 against acute myeloid leukemia cancer cell line (HL60, U937)
[16] = Homo sapiens, MOLT-4, 72 h, 72 hours incubation
[17] = Homo sapiens, MCF7, 72 h, 72 hours incubation
[18] = Homo sapiens, MIA PaCa-2, 72 h, 72 hours incubation

## C=CCc1cc(O)c(O)cc1CC=C [Compound 2, 4,5-diallylbenzene-1,2-diol]
[1]; [12]
  pIC50: 4.89
[1]; [13]
  pIC50: 4.28 to 4.89
[2]
  pIC50: 4.60
[3]; [14]
  pIC50: 4.60
[3]; [15]
  pIC50: 4.22 to 4.89
[4]; 72 hours incubation
  pIC50: 4.52
[4]; [16]
  pIC50: 4.30 to 4.82
[5]; Homo sapiens, 72 h
  pIC50: 4.15 to 4.60
[6]; 72 hours incubation
  pIC50: 4.40
[6]; [17]
  pIC50: 4.15 to 4.60
[7]; [18]
  pIC50: 4.15 to 4.52

## C=CCc1ccc(O)c(O)c1CC=C [Compound 3, 3,4-diallylbenzene-1,2-diol]
[8]
  pIC50: 4.10
[1]; [12]
  pIC50: 4.28
[1]; [13]
  pIC50: 4.28 to 4.89
[3]; [14]
  pIC50: 4.22
[3]; [15]
  pIC50: 4.22 to 4.89
[4]; 72 hours incubation
  pIC50: 4.30
[5]; Homo sapiens, 72 h
  pIC50: 4.15 to 4.60
[6]; 72 hours incubation
  pIC50: 4.15
[7]; 72 hours incubation
  pIC50: 4.15

## C=CCc1ccc(OC(C)=O)c(OC(C)=O)c1 [Compound 7, 4-allyl-1,2-phenylene diacetate]
[8]
  pIC50: 4.15
[1]; [12]
  pIC50: 4.89
[1]; [13]
  pIC50: 4.28 to 4.89
[2]
  pIC50: 4.82
[3]; [14]
  pIC50: 4.82
[3]; [15]
  pIC50: 4.22 to 4.89
[9]
  pIC50: 4.89
[4]; 72 hours incubation
  pIC50: 4.82
[4]; [16]
  pIC50: 4.30 to 4.82
[5]
  pIC50: 4.60
[5]; Homo sapiens, 72 h
  pIC50: 4.15 to 4.60
[6]; 72 hours incubation
  pIC50: 4.60
[6]; [17]
  pIC50: 4.15 to 4.60
[7]; 72 hours incubation
  pIC50: 4.52
[7]; [18]
  pIC50: 4.15 to 4.52
[10]
  Sensitivity to spontaneous autooxidation: resistant to spontaneous autooxidation
U937 cells
  Apoptosis and necrosis of U937 cells by flow cytometry: induce apoptosis and necrosis
Normal human PBMC
  Apoptosis and necrosis of normal human PBMC by flow cytometry: remained unaffected
[11]
  In vivo efficacy against EAC tumor (viable cells from peritoneal cavity): effective in vivo in destroying EAC tumor

## CC(C)(C=NO)c1ccc(O)c(O)c1 [Compound 9, 2-(3,4-dihydroxyphenyl)-2-methylpropanal oxime]
[8]
  pIC50: 4.00
[1]; [12]
  pIC50: 4.19
[2]
  pIC50: 4.15
[3]; [14]
  pIC50: 4.19
[4]; [16]
  pIC50: 4.15
[5]; Homo sapiens, 72 h
  pIC50: 4.10
[6]; [17]
  pIC50: 4.07
[7]; [18]
  pIC50: 4.07

## CC(C)(C#N)c1ccc(O)c(O)c1 [Compound 10, 2-(3,4-dihydroxyphenyl)-2-methylpropanenitrile]
[8]
  pIC50: 3.82
[1]; [12]
  pIC50: 3.95
[2]
  pIC50: 3.94
[3]; [14]
  pIC50: 3.96
[9]
  pIC50: 3.96
[5]; Homo sapiens, 72 h
  pIC50: 3.92
[6]; [17]
  pIC50: 4.00
[7]; [18]
  pIC50: 3.92

## CC(=O)ON=CC(C)(C)c1ccc(OC(C)=O)c(OC(C)=O)c1 [Compound 12, 4-(1-(acetoxyimino)-2-methylpropan-2-yl)-1,2-phenylene diacetate]
[8]
  pIC50: 3.60
[1]; [12]
  pIC50: 3.71
[2]
  pIC50: 3.72
[3]; [14]
  pIC50: 3.72
[9]
  pIC50: 3.72
[4]; [16]
  pIC50: 3.72
[5]; Homo sapiens, 72 h
  pIC50: 3.70
[6]; [17]
  pIC50: 3.70

## CCOC(=O)/C=C/C(C)(C)c1ccc(O)c(O)c1 [Compound 13, (E)-ethyl 4-(3,4-dihydroxyphenyl)-4-methylpent-2-enoate]
[8]
  pIC50: 4.12
[1]; [12]
  pIC50: 4.30
[1]; [13]
  pIC50: 4.28 to 4.89
[2]
  pIC50: 4.35
[3]; [14]
  pIC50: 4.30
[3]; [15]
  pIC50: 4.22 to 4.89
[9]
  pIC50: 4.35
[4]; 72 hours incubation
  pIC50: 4.35
[5]
  pIC50: 4.15
[6]; 72 hours incubation
  pIC50: 4.15
[7]; [18]
  pIC50: 4.15 to 4.52

## C=CC(C)(C)c1ccc2c(c1)OCO2 [Compound 14, 5-(2-methylbut-3-en-2-yl)benzo[d][1,3]dioxole]
[8]
  pIC50: 3.10
[1]; [12]
  pIC50: 3.18
[2]
  pIC50: 3.19
[3]; [14]
  pIC50: 3.17
[9]
  pIC50: 3.17
[4]; Homo sapiens, MOLT-4, 72 hours incubation
  pIC50: 3.19
[5]; Homo sapiens
  pIC50: 3.17
[6]; Homo sapiens, MCF7, 72 hours incubation
  pIC50: 3.17
[7]; Homo sapiens, MIA PaCa-2, 72 hours incubation
  pIC50: 3.17

## C=CCc1cccc(O)c1O [Compound 16, 3-allyl-benzene-1,2-diol]
[8]
  pIC50: 4.52
[1]; [12]
  pIC50: 4.70
[1]; [13]
  pIC50: 4.28 to 4.89
[2]
  pIC50: 4.60
[3]; [14]
  pIC50: 4.70
[3]; [15]
  pIC50: 4.22 to 4.89
[9]
  pIC50: 4.60
[4]; 72 hours incubation
  pIC50: 4.70
[4]; [16]
  pIC50: 4.30 to 4.82
[5]
  pIC50: 4.52
[5]; Homo sapiens, 72 h
  pIC50: 4.15 to 4.60
[6]; [17]
  pIC50: 4.15 to 4.60
[7]; [18]
  pIC50: 4.15 to 4.52

## C=CCc1cccc(OC(C)=O)c1OC(C)=O [Compound 19, 3-allyl-1,2-phenylene diacetate]
[8]
  pIC50: 4.52
[1]; [12]
  pIC50: 4.89
[2]
  pIC50: 4.70
[3]; [14]
  pIC50: 4.82
[9]
  pIC50: 4.82
[4]; [16]
  pIC50: 4.70
[5]; Homo sapiens, 72 h
  pIC50: 4.70
[6]; [17]
  pIC50: 4.70
[7]; [18]
  pIC50: 4.70
